According to US9173876B2, “Preparation and therapeutic applications of (2S,3R)-N-2-((3-pyridinyl)methyl)-1-azabicyclo[2.2.2]oct-3-yl)-3,5-difluorobenzamide” (Targacept, Inc., priority 2009, dated 2015):

Tests used:
normal rats = assay: Novel object recognition (NOR) task; format: in vivo, rat; settings: for Duration of Effect, NOR (time after dosing): after 3rd administration; for Minimum Effective Dose (MED), NOR: oral, rats, follow-up study FIG. 2
Procedure: Memory was assessed by using the three-trial novel object recognition test. On the first day (exploratory trial), rats were allowed to explore an open arena (44.5×44.5×30.5 cm) for 6 min. On the second day (acquisition trial), rats were allowed to explore the same arena in the presence of two identical objects (both object A) for 3 minutes. On the third day (retention or recall trial), performance was evaluated by allowing the same animal to re-explore the arena for 3 minutes in the presence of two different objects: the familiar object A and a novel object B. An inter-trial interval of 24 hours was imposed between the three NOR trials. Recognition memory was assessed by comparing the time spent exploring a novel (object B) versus a familiar (object A) object during the recall trial. Recognition index was assessed for each animal and expressed as a ratio ((time B/time A+time B)×100).

CD-1 mice = assay: Formalin test; format: in vivo, mouse
Procedure: Subjects (adult male CD-1 mice (Charles River, Raleigh, N.C.) weighing approximately 20-25 grams) were removed from their home cage and weighed, then placed in a clear Plexiglas™ observation box for an acclimation period of 20-30 minutes. Mice were then removed from the observation chambers and (2S,3R)—N-2-((3-pyridinyl)methyl)-1-azabicyclo[2.2.2]oct-3-yl)-3,5-difluorobenzamide (as the hydrochloride salt in 0.9% saline) (1, 3 or 10 mg/kg s.c. (calculated with respect to the free base)), morphine (5 mg/kg; s.c.) or 0.9% saline vehicle was administered subcutaneously in a volume of 1 mL/kg. Mice were then returned to the chamber for the predetermined pretreatment time of 30 minutes for (2S,3R)—N-2-((3-pyridinyl)methyl)-1-azabicyclo[2.2.2]oct-3-yl)-3,5-difluorobenzamide and morphine.
The subject's assigned paw was grasped gently and formalin solution was injected into the paw intra-dermally in the middle on the dorsal side. Once injected, the subject was immediately returned to its observation chamber and a timer was started to mark the beginning of Phase I. Each subject was videotaped for the entire 40-minute session. […] The time spent licking during that 1 min interval was recorded, and the presence or absence of paw favoring was noted.
For data analyses, phase I of the test was defined as 0 to 5 minutes after formalin injection, and phase II was defined as 20 to 40 minutes after formalin injection. The time spent licking during the 1 minute intervals during those time frames was recorded and graphed as mean±S.E.M. For comparisons across treatment groups, 1-way analyses of variance (ANOVAs) were performed for each phase of the session with treatment as the […] variable. Post-hoc analyses were performed when appropriate to determine specific group differences.

db/db mouse = assay: Murine model of type 2 diabetes mellitus (db/db mouse); format: in vivo; settings: 1.0 mg/kg oral once daily
Excerpt: The db/db mouse, a well established model of type 2 diabetes mellitus, is a leptin-deficient mutant that expresses an obese phenotype and also commonly expresses metabolic symptoms including hyperglycemia, hyperlipidemia and hyperinsulinemia (Halaas et al., 1995 and Lee et al., 1996). This experimental animal model of diabetes was employed in a study designed to determine the effects of (2S,3R)—N-2-((3-pyridinyl)methyl)-1-azabicyclo[2.2.2]oct-3-yl)-3,5-difluorobenzamide on body mass and several additional metabolic parameters.
In this study, (2S,3R)—N-2-((3-pyridinyl)methyl)-1-azabicyclo[2.2.2]oct-3-yl)-3,5-difluorobenzamide was repeatedly administered orally (via gavage) at 1.0 mg/kg once daily starting from the age of approximately 3 weeks and continuing throughout the 7-week study. Nondiabetic heterozygote littermate mice (db/+; designated “Db”) were used as controls. Body weight and food intake were determined twice weekly. The α7 antagonist methyllycaconitine (MLA) was also given concurrently via gavage at 3 mg/kg daily to selected cohorts of db/db (designated “db”) or db/+mice. At the end of the 7-week dosing regimen, total growth rates (overall body weight gain) and average daily food intake were calculated. In addition, glucose levels were assessed in mice fasted overnight. Furthermore, blood sample analytes from mice fasted overnight were collected for measurements of tumor necrosis factor-a (TNF-α), triglycerides and glycosylated hemoglobin (HbA1c). All data are expressed as mean±SEM. For each parameter investigated, differences among all groups were compared by one-way ANOVA with post-hoc Neuman-Keuls multiple comparison test.

O=C(N[C@@H]1C2CCN(CC2)[C@H]1Cc1cccnc1)c1cc(F)cc(F)c1 [Compound A]
NOR effect after single oral administration (recall only session) (normal rats; 0.28 μmol/kg oral on day 3 only): pro-cognitive effects
Recognition index (normal rats; 0.28 μmol/kg oral, 0.5 h after dosing, FIG. 3): 68±4%
Recognition index (normal rats; 0.28 μmol/kg oral, 2 h after dosing, FIG. 3): 71±2%
Recognition index (normal rats; 0.28 μmol/kg oral, 6 h after dosing, FIG. 3): 62±2%
Recognition index (normal rats; 0.28 μmol/kg oral, 24 h after acquisition trial, FIG. 1, vehicle 54±1%): 74±3%
Recognition index (normal rats; 0.84 μmol/kg oral, 0.5 h after dosing, FIG. 4): 59±2%
Recognition index (normal rats; 0.84 μmol/kg oral, 2 h after dosing, FIG. 4): 63±2%
Recognition index (normal rats; 0.84 μmol/kg oral, 6 h after dosing, FIG. 4): 68±3%
Recognition index (normal rats; 0.84 μmol/kg oral, 18 h after dosing, FIG. 4): 68±3%
Recognition index (normal rats; 0.84 μmol/kg oral, 24 h after acquisition trial, FIG. 1, vehicle 54±1%): 70±4%
Duration of Effect, NOR (time after dosing) (normal rats; 0.1 mg/kg (0.28 μmol/kg) oral, FIG. 3, listed as (2S,3R)-N-2-((3-pyridinyl)methyl)-1-azabicyclo[2.2.2]oct-3-yl)-3,5-difluorobenza): Duration 6 h (@ 0.1 mg/kg)
Duration of Effect, NOR (time after dosing) (normal rats; 0.3 mg/kg (0.84 μmol/kg) oral, FIG. 4, listed as (2S,3R)-N-2-((3-pyridinyl)methyl)-1-azabicyclo[2.2.2]oct-3-yl)-3,5-difluorobenza): Duration 18 h (@ 0.3 mg/kg)
Duration of Effect, NOR (time after dosing) (normal rats; 0.3 mg/kg (0.84 μmol/kg) oral, FIG. 4, listed as Formula I): ≤ 18 h
Doses with statistically significant effect in NOR (normal rats; NOR vs. dose, FIG. 1): ≥ 0.1 mg/kg
Doses with statistically significant effect in NOR (normal rats; minimum effective dose study, FIG. 2): ≥ 0.03 mg/kg
Minimum Effective Dose (MED), NOR (normal rats; listed as (2S,3R)-N-2-((3-pyridinyl)methyl)-1-azabicyclo[2.2.2]oct-3-yl)-3,5-difluorobenza): MED = 0.084 μmol/kg
Minimum Effective Dose (MED), NOR (normal rats; listed as (2S,3R)—N-2-((3-pyridinyl)methyl)-1-azabicyclo[2.2.2]oct-3-yl)-3,5-difluorobenza): 0.084 µmol/kg
Time spent licking the paw, phase II (CD-1 mice; 10 mg/kg s.c., 20-40 min after formalin, P<0.05): significant in reducing the time spent licking the paw
Time spent licking, phase I (CD-1 mice; 1, 3 or 10 mg/kg s.c., 0-5 min after formalin): no statistically significant dose
Time spent licking, phase I or phase II, re-scored across the entire time period (CD-1 mice; subsequent analysis of the original videotapes): failed to achieve statistical significance
All parameters measured (body weight gain, food intake, glucose, HbA1c, TNF-α, triglycerides) (db/db mouse; 7 weeks, obese db/db mice vs vehicle): significant decrease in all parameters measured
Average daily food consumption (db/db mouse; 7 weeks, obese mice vs obese controls, FIG. 16): significantly lower
Triglyceride levels (db/db mouse; 7 weeks, obese mice vs vehicle, FIG. 20): significantly lower
Total body weight gain (db/db mouse; 7 weeks, obese mice, FIG. 15): significantly lower
Fasting plasma glucose levels (db/db mouse; 7 weeks, obese mice, FIG. 17): significantly inhibited
Glycosylated HbA1c levels (db/db mouse; 7 weeks, obese mice, FIG. 18): significantly inhibited
Pro-inflammatory cytokine TNF alpha (db/db mouse; 7 weeks, obese mice, FIG. 19): significantly reduced
Food consumption (db/db mouse; lean mice (Db), FIG. 16): unaffected
